In patent US11633454B2, “Compositions and methods for treating metabolic diseases” (SHANGHAI HEP PHARMACEUTICAL CO., LTD., priority 2016, dated 2023):

Experiments:
[1] = molecular target: T1, NTCP (Homo sapiens, UniProt Q14973); test: In vitro bile acids assay (3H-TA uptake by NTCP-293 cells)
T1 sequence (Q14973 1-349): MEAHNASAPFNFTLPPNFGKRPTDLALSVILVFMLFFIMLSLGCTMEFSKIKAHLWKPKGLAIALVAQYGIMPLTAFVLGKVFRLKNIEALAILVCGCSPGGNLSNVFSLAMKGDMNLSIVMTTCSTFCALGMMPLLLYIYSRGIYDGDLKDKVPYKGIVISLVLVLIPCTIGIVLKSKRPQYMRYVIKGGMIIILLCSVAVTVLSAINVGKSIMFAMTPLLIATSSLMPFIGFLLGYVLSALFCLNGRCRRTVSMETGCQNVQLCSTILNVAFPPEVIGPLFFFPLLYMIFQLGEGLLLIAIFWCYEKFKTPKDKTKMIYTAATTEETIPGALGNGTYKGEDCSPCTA

[2] = tested on: hyperlipidemic golden hamsters; test: Hyperlipidemic golden hamster model, 4 weeks of treatment; format: in vivo; details: 50 mg/kg FENO po
[3] = tested on: Zucker Diabetic Fatty (ZDF) rats; test: Zucker Diabetic Fatty (ZDF) rats, 4 weeks of treatment (GLU, HbA1c, insulin, TC, TG, BUN, organ index, TBA); format: in vivo, rat
[4] = 300 mg/kg Met, 2 weeks of dosing
[5] = 300 mg/kg Met, 4 weeks of dosing
[6] = ZDF rats, after 4 weeks of treatment, 300 mg/kg Met oral gavage, mean ± SEM

C=C[C@H]1C[N@@]2CC[C@H]1C[C@@H]2[C@@H](O)c1ccnc2ccc(OC)cc12 [quinidine]
Effect on TA absorption ([1]; 0.1 μmol/L, FIG. 5E): enhanced TA absorption
Effect on TA absorption ([1]; 20 μmol/L, FIG. 5F): enhanced TA absorption

CC(C)OC(=O)C(C)(C)Oc1ccc(C(=O)c2ccc(Cl)cc2)cc1 [FENO, Fenofibrate]
Serum TC (χ ± S) ([2]; 2 w of dosing): 6.63 ± 4.40 mmol/L
Serum TG (χ ± S) ([2]; 2 w of dosing): 3.14 ± 0.4 mmol/L
Serum TC (χ ± S) ([2]; 4 w of dosing): 7.42 ± 1.70 mmol/L
Serum TG (χ ± S) ([2]; 4 w of dosing): 2.68 ± 0.30 mmol/L
Serum HDL-C ([2]; 4 weeks post the treatment): 3.13 ± 0.30 mmol/L
Serum LDL-C ([2]; 4 weeks post the treatment): 1.88 ± 0.40 mmol/L
AI (atherosclerosis index) ([2]; 4 weeks, AI=(TC−HDL-C)/HDL-C): 1.36 ± 0.38
Serum TC (χ ± S) ([2]; before dosing): 11.34 ± 0.50 mmol/L
Serum TG (χ ± S) ([2]; before dosing): 6.16 ± 1.30 mmol/L

CN(C)C(=N)N=C(N)N [Met, Metformin]
Fasting serum GLU (χ ± SEM) ([3]; 300 mg/kg Met oral gavage, 2 weeks of dosing): 7.98 ± 1.02 mmol/L
Fasting serum GLU (χ ± SEM) ([3]; 300 mg/kg Met oral gavage, 4 weeks of dosing): 8.35 ± 0.58 mmol/L
Fasting serum GLU (χ ± SEM) ([3]; 300 mg/kg Met oral gavage, week 0): 9.71 ± 0.96 mmol/L
Serum BUN (χ ± SEM) [3, 4]: 6.58 ± 0.52 mM
Serum TC (χ ± SEM) [3, 4]: 5.24 ± 0.35 mM
HbA1c level (χ ± SEM) [3, 5]: 5.07 ± 0.23 %
Serum BUN (χ ± SEM) [3, 5]: 7.09 ± 0.36 mM
Serum TC (χ ± SEM) [3, 5]: 6.95 ± 0.54 mM
HbA1c level (χ ± SEM) ([3]; 300 mg/kg Met, week 0): 6.25 ± 0.31%
Serum BUN (χ ± SEM) ([3]; 300 mg/kg Met, week 0): 5.52 ± 0.21 mM
Serum TC (χ ± SEM) ([3]; 300 mg/kg Met, week 0): 3.82 ± 0.11 mM
Serum insulin (χ ± SEM) ([3]; 300 mg/kg Met, week 0): 6.74 ± 0.62 ng/mL
Heart index (HI) vs model controls ([3]; MET 300 mg/kg, 4 weeks, FIG. 27A): had no effect on the HI values
Total fat index (TFI) vs model controls ([3]; MET 300 mg/kg, 4 weeks, FIG. 27C): appeared to increase the TFI values
Fasting serum GLU ([3]; MET positive control in the experiment with additional polypeptides, FIGS. 18A, 18B): significantly decreased fasting serum GLU
Serum TBA level after weeks of dosing ([3]; ZDF rats, 300 mg/kg Met, week 0, mean ± SEM): 32.8 ± 12.3 µM
Serum TBA level after weeks of dosing ([3]; ZDF rats, 300 mg/kg Met, week 2, mean ± SEM): 82.5 ± 27 µM
Serum TBA level after weeks of dosing ([3]; ZDF rats, 300 mg/kg Met, week 4, mean ± SEM): 83 ± 15.8 µM
Heart index [3, 6]: 3.63 ± 0.24 g/kg
Kidney index [3, 6]: 7.26 ± 0.55 g/kg
Total fat index [3, 6]: 94.64 ± 3.79 g/kg
